Where “and” joins values, the source holds several entries; their conditions need not be identical. Equal entries are not always repeated. Calls of active or inactive are those of the source. The calls are words filed in the database; no cut-off is given here.
System: not listed separately
Experiment: Cytotoxicity against mouse Melan-a cells assessed as cell viability at 30 uM
Format: cell-based
Details: Melan-a cells, read-out: Activity

Row | SMILES | viability at 30 µM
1 | O=C(Nc1cc(C(F)(F)F)cc(C(F)(F)F)c1)c1ccco1 | 31.9%
2 | COc1ccc(C(=O)Nc2cc(OC)ccc2OC)cc1 | -8.3%
3 | COc1cccc(NC(=O)c2ccc(C)cc2)c1 | 2.7%
4 | COc1ccc(NC(=O)c2ccc(C#N)cc2)cc1 | 8.8%
5 | Cc1cc(C)cc(NC(=O)c2ccco2)c1 | 14.2%
6 | COc1ccc(OC)c(NC(=O)c2ccc(C)cc2)c1 | -3.2%
7 | COc1cccc(C(=O)Nc2ccc(C)cc2)c1 | 7.5%
8 | CCc1ccc(C(=O)Nc2cc(OC)cc(OC)c2)cc1 | 10.1%
9 | CCc1ccc(C(=O)Nc2ccc(C(=O)OC)cc2)cc1 | 2%
10 | COC(=O)c1ccc(NC(=O)c2cccc(C)c2)cc1 | 12.9%
11 | COc1ccc(NC(=O)c2cccc(OC)c2)cc1 | 0.5%
12 | CCCCOc1ccc(NC(=O)c2ccc(OC)cc2)cc1 | 1%
13 | COc1ccc(NC(=O)c2ccccc2C)c(OC)c1 | -3.5%
14 | COc1ccc(C(=O)Nc2cc(OC)cc(OC)c2)cc1 | 13.6%
15 | Cc1cccc(NC(=O)c2ccc(C#N)cc2)c1 | 11.1%
16 | Cc1ccc(C(=O)Nc2cc(C)cc(C)c2)cc1 | 30.9%
17 | CCCCOc1ccc(NC(=O)c2cccc(OC)c2)cc1 | 19.1%
18 | CCCCOc1ccc(NC(=O)c2ccco2)cc1 | 3.7%
19 | COc1cccc(NC(=O)c2ccco2)c1 | 0.4%
20 | CCc1ccc(C(=O)Nc2ccccc2OC)cc1 | 13.5%
21 | COc1cc(NC(=O)c2ccco2)cc(OC)c1 | -1.3%
22 | COc1ccc(C(=O)Nc2cccc(OC)c2)cc1 | 0.6%
23 | CCc1ccc(C(=O)Nc2cccc(C(=O)OC)c2)cc1 | 37%
24 | Cc1ccc(NC(=O)c2cccc(C)c2)cc1 | -2.4%

Row | SMILES | viability at 30 µM
25 | COc1ccccc1NC(=O)c1ccco1 | -5.4%
26 | COC(=O)c1ccc(NC(=O)c2ccc(C#N)cc2)cc1 | 14.2%
27 | Cc1cc(C)cc(NC(=O)c2cccc(C)c2)c1 | 6%
28 | COc1cccc(NC(=O)c2ccccc2C)c1 | 13.4%
29 | Cc1cc(C)cc(NC(=O)c2ccccc2C)c1 | 25.6%
30 | COC(=O)c1cccc(NC(=O)c2cccc(OC)c2)c1 | 20.1%
31 | COC(=O)c1ccc(NC(=O)c2ccc(OC)cc2)cc1 | -5.6%
32 | COc1ccc(OC)c(NC(=O)c2ccc(C#N)cc2)c1 | -1.7%
33 | COc1ccc(NC(=O)c2cccc(C)c2)cc1 | -0.4%
34 | COc1ccc(NC(=O)c2c(OC)cccc2OC)cc1 | 10.2%
35 | COc1cccc(C(=O)Nc2cc(C(F)(F)F)cc(C(F)(F)F)c2)c1 | 9%
36 | COc1ccc(NC(=O)c2ccco2)c(OC)c1 | -24.1%
37 | CCCCOc1ccc(NC(=O)c2ccc(C)cc2)cc1 | -2.4%
38 | Cc1cccc(NC(=O)c2ccco2)c1 | -1.3%
39 | Cc1ccc(C(=O)Nc2cccc(C)c2)cc1 | 14.3%
40 | COc1ccc(NC(=O)c2ccco2)cc1 | 13.6%
41 | CCc1ccc(C(=O)Nc2cc(C(F)(F)F)cc(C(F)(F)F)c2)cc1 | 16.5%
42 | CCCCOc1ccc(NC(=O)c2ccccc2C)cc1 | 9.9%
43 | COC(=O)c1cccc(NC(=O)c2ccc(C)cc2)c1 | 16.4%
44 | Cc1ccc(NC(=O)c2ccc(C#N)cc2)cc1 | 10.9%
45 | Cc1cccc(C(=O)Nc2cc(C(F)(F)F)cc(C(F)(F)F)c2)c1 | -2.3%
46 | CCCCOc1ccc(NC(=O)c2cccc(C)c2)cc1 | 4.8%
47 | COC(=O)c1ccccc1NC(=O)c1cccc(C)c1 | 29.6%
48 | COC(=O)c1ccc(NC(=O)c2ccc(C)cc2)cc1 | 11.2%

Row | SMILES | viability at 30 µM
49 | COc1ccc(NC(=O)c2ccc(C#N)cc2)c(OC)c1 | 7.2%
50 | COc1ccc(OC)c(NC(=O)c2ccccc2C)c1 | 8.6%
51 | COc1ccccc1NC(=O)c1ccc(C)cc1 | 18.5%
52 | N#Cc1ccc(C(=O)Nc2cc(C(F)(F)F)cc(C(F)(F)F)c2)cc1 | 33.3%
53 | CCc1ccc(C(=O)Nc2ccc(OC)cc2OC)cc1 | -6.5%
54 | COC(=O)c1ccc(NC(=O)c2ccccc2C)cc1 | 0.8%
55 | COc1cccc(C(=O)Nc2cccc(C)c2)c1 | 12%
56 | COc1ccccc1NC(=O)c1ccc(C#N)cc1 | -3.1%
57 | CC(=O)c1ccc(NC(=O)c2ccco2)cc1 | -2.6%
58 | COC(=O)c1ccccc1NC(=O)c1ccccc1C | 9.7%
59 | COc1ccc(C(=O)Nc2cc(C)cc(C)c2)cc1 | 31.9%
60 | COc1ccc(C(=O)Nc2cc(C(F)(F)F)cc(C(F)(F)F)c2)cc1 | 21%
61 | COC(=O)c1ccccc1NC(=O)c1cccc(OC)c1 | 11.1%
62 | CC(=O)c1ccc(NC(=O)c2ccc(C)cc2)cc1 | 11.2%
63 | Cc1cc(C)cc(NC(=O)c2ccc(C#N)cc2)c1 | 31.6%
64 | COc1cccc(C(=O)Nc2ccc(C(C)=O)cc2)c1 | -5%
65 | CC(=O)c1ccc(NC(=O)c2ccc(C#N)cc2)cc1 | 6.9%
66 | CCc1ccc(C(=O)Nc2ccccc2C(=O)OC)cc1 | 18.9%
67 | COc1ccc(NC(=O)c2ccc(OC)cc2)cc1 | -10.6%
68 | Cc1cccc(NC(=O)c2ccccc2C)c1 | 5.8%
69 | COc1ccc(NC(=O)c2ccc(C)cc2)c(OC)c1 | 14.4%
70 | Cc1ccc(NC(=O)c2ccccc2C)cc1 | -0.2%
71 | COc1cccc(C(=O)Nc2cc(OC)ccc2OC)c1 | 17.8%
72 | COc1ccccc1NC(=O)c1cccc(C)c1 | 11.1%

Row | SMILES | viability at 30 µM
73 | COc1ccc(C(=O)Nc2ccc(OC)cc2OC)cc1 | -9.4%
74 | CCc1ccc(C(=O)Nc2cc(OC)ccc2OC)cc1 | -19.8%
75 | Cc1cccc(NC(=O)c2cccc(C)c2)c1 | -0.1%
76 | COc1ccc(C(=O)Nc2ccc(C)cc2)cc1 | 0.7%
77 | COC(=O)c1ccccc1NC(=O)c1ccc(OC)cc1 | 31.1%
78 | COc1ccc(C(=O)Nc2cccc(C)c2)cc1 | -1.7%
79 | COC(=O)c1ccc(NC(=O)c2ccco2)cc1 | -8.4%
80 | COc1cccc(NC(=O)c2ccc(C#N)cc2)c1 | -9.4%
81 | COc1ccc(C(=O)Nc2ccc(C(C)=O)cc2)cc1 | 0.7%
82 | COC(=O)c1cccc(NC(=O)c2ccc(OC)cc2)c1 | 18.8%
83 | COc1cccc(C(=O)Nc2cc(C)cc(C)c2)c1 | 32%
84 | COC(=O)c1ccccc1NC(=O)c1ccc(C)cc1 | 20.1%
85 | CCCCOc1ccc(NC(=O)c2ccc(C#N)cc2)cc1 | -4.4%
86 | CCCCOc1ccc(NC(=O)c2ccc(CC)cc2)cc1 | -10.8%
87 | COC(=O)c1ccc(NC(=O)c2cccc(OC)c2)cc1 | 13.7%
88 | CCc1ccc(C(=O)Nc2cccc(OC)c2)cc1 | 6.3%
89 | COC(=O)c1cccc(NC(=O)c2ccccc2C)c1 | 4.6%
90 | COC(=O)c1cccc(NC(=O)c2cccc(C)c2)c1 | 10.5%
91 | COc1cc(NC(=O)c2cccc(C)c2)cc(OC)c1 | -12.6%
92 | COc1ccc(OC)c(NC(=O)c2ccco2)c1 | -17%
93 | Cc1ccc(C(=O)Nc2cc(C(F)(F)F)cc(C(F)(F)F)c2)cc1 | 0.3%
94 | COc1cccc(NC(=O)c2cccc(OC)c2)c1 | -8.4%
95 | COc1ccc(C(=O)Nc2ccccc2OC)cc1 | -2.6%
96 | CC(=O)c1ccc(NC(=O)c2ccccc2C)cc1 | 0.1%

Row | SMILES | viability at 30 µM
97 | Cc1ccc(NC(=O)c2ccco2)cc1 | 7.9%
98 | COc1cc(NC(=O)c2ccccc2C)cc(OC)c1 | 6.4%
99 | CCc1ccc(C(=O)Nc2ccc(C)cc2)cc1 | 1.8%
100 | Cc1ccccc1C(=O)Nc1cc(C(F)(F)F)cc(C(F)(F)F)c1 | 15.1%
101 | Cc1ccc(NC(=O)c2ccc(C)cc2)cc1 | 13.9%
102 | COC(=O)c1cccc(NC(=O)c2ccc(C#N)cc2)c1 | 0.8%
103 | COc1ccccc1NC(=O)c1ccccc1C | 7%
104 | CC(=O)c1ccc(NC(=O)c2cccc(C)c2)cc1 | -5.9%
105 | COc1cccc(C(=O)Nc2ccc(OC)cc2OC)c1 | -3.9%
106 | COc1cc(NC(=O)c2cccc(OC)c2)cc(OC)c1 | 9.6%
107 | COC(=O)c1cccc(NC(=O)c2ccco2)c1 | 0.4%
108 | COc1cccc(C(=O)Nc2ccccc2OC)c1 | 10.1%
109 | COc1ccc(OC)c(NC(=O)c2cccc(C)c2)c1 | 0.3%
110 | COc1ccc(NC(=O)c2ccc(C)cc2)cc1 | 4.9%
111 | COc1ccc(NC(=O)c2cccc(C)c2)c(OC)c1 | 3.2%
112 | COC(=O)c1ccccc1NC(=O)c1ccco1 | -2.3%
113 | COc1ccc(NC(=O)c2ccccc2C)cc1 | 12.8%
114 | CCc1ccc(C(=O)Nc2ccc(OC)cc2)cc1 | -9.9%
115 | COc1cccc(NC(=O)c2cccc(C)c2)c1 | -0.3%
116 | CCc1ccc(C(=O)Nc2ccc(C(C)=O)cc2)cc1 | 3.4%
117 | COc1cc(NC(=O)c2ccc(C)cc2)cc(OC)c1 | 19.2%
118 | CCc1ccc(C(=O)Nc2cccc(C)c2)cc1 | -2.2%
119 | COC(=O)c1ccccc1NC(=O)c1ccc(C#N)cc1 | 8%
120 | COc1cc(NC(=O)c2ccc(C#N)cc2)cc(OC)c1 | 9.6%

Same assay, conditions: melan-a, 30 µM

Row | SMILES | Activity
121 | CCc1ccc(C(=O)Nc2cc(C)cc(C)c2)cc1 | 41.5% and > 90%

System: Cavia porcellus
Experiment: Antimelanogenic activity in guinea pig skin assessed as inhibition of UVB-induced pigmentation at 10 ug administered topically bid for 4 weeks
Format: functional, organism-based
Details: not given

Row | SMILES | Activity
122 | COc1cccc(C(=O)Nc2cc(C)cc(C)c2)c1 | Active

Source: ChEMBL document CHEMBL1212835, “Identification of a potent and noncytotoxic inhibitor of melanin production” (Bioorg Med Chem, 2010)
